Consider 25 molecules from EP4667628A1, “SYNTHETIC LETHALITY TO TREAT AUTOSOMAL DOMINANT POLYCYSTIC KIDNEY DISEASE (ADPKD)” (Albert-Ludwigs-Universität Freiburg Körperschaft des …, priority 2024, dated 2025).

Structures are written as SMILES. Where two headings read alike, the source gives them in different places.

The subject of experiment [1] is isogenic wildtype mIMCD-3 cells. Nature of the experiment: Luminescence-based ATP-dependent cell viability assay (CellTiter-Glo 2.0), dose-response, isogenic wildtype counter screen. The following applies: Mus musculus. Here is the method: (§1) Subculturing of cells was performed twice a week in a 1:10 ratio. Cells were maintained in a humidified incubator at 37°C and 5% CO2. […] The term "wild-type" is used for mIMCD-3 cells that were not edited by CRISPR-Cas9. The original cell line obtained from ATCC was generated from inner medullary collecting ducts of a SV-40 transgenic mouse.^13
(§2) Prior to genome editing, a monoclonal starting cell line was generated by a single cell sorting step.
(§3) After 72 hours cell density was checked with an inverted microscope (Zeiss Axiovert 40CFL). Cells were washed with 10 ml phosphate buffered saline (PBS). […] 10 ml DMEM:F12 with 10% FBS and 1% penicillin/streptomycin were added, cell detachment was facilitated by pipetting up and down multiple times. […] Cell density was diluted to 400,000 cells/ml for each genotype. […] Basins of 1536 well plates were filled with 25 µl (vertical basins) or 40 µl (horizontal basins) H2O in order to prevent evaporation induced edge effects. Confluency was checked after 24 hours with an Evos M5000 imaging system (Invitrogen).
(§4) For the secondary screen and validation experiments, source plates were generated with compounds in 1:2 dilutions allowing for the generation of dose-response-curves. 30 nl of compounds per well were transferred in secondary screen and validation experiments. […] The volume of transferred DMSO was adjusted according to the transferred compound volume. […] After compound transfer, plates were centrifuged (Multifuge 3 s-r, Heraeus) for 10 seconds (1,000 rpm). […] Plates were stored in incubators at 37°C and 5% CO2 for 72 hours. A maximum of two plates was stacked in the incubator. Source plates were sealed with an Agilent Technologies Plateloc heat sealer. Prior to compound transfer source plates were centrifuged (4,200 rpm, 1 min). Sealing was removed with a Brooks XPeel device.
(§5) After 72 hours of compound incubation, plates were allowed to adapt to room temperature for 20 minutes. […] The luminescence signal was allowed to stabilize for 20 min. Luminescence was scanned with a BMG Labtech Pherastar FSX luminescence reader with a measurement interval time of 0.16 s per well. A 1536-well plate adapted aperture was used to minimize cross-talk. Data analysis was performed with GraphPad Prism (version 9). Dose- and genotype-dependent differences in viability were checked for statistical significance by performing a two-way ANOVA (α = 0.05). Difference in protein abundance analyzed by western blot were checked for statistical significance by performing a student's t-test (α = 0.05).

Experiment [2] relates to monoclonal PKD1 KO mIMCD-3 cell line (clone #1). Nature of the experiment: Luminescence-based ATP-dependent cell viability assay (CellTiter-Glo 2.0), dose-response, PKD1 knockout clone #1. On the set-up: species or system mouse. The following applies: for IC50: Mus musculus; for effect sizes: further MEK-inhibitors tested, PKD1-deficient cells compared to wildtype cells. Here is the method:
as §1, §2, §3, §4, §5
On the technique in general: Cellular ATP, detected with luciferase, serves as a proxy for viable cell number.

For experiment [3], the system named is second independent PKD1 KO clone (#2). Nature of the experiment: Luminescence-based ATP-dependent cell viability assay (CellTiter-Glo 2.0), dose-response, PKD1 knockout clone #2. The following applies: Mus musculus. How it is done:
as §1, §2, §3, §4, §5

Setting [4] is: mIMCD3, isogenic wildtype mIMCD-3 control cells, 72 hours compound incubation, read-out: IC50 wildtype.
The mark [5] stands for this setting: mIMCD3, mIMCD-3 PKD1 knockout clone 1, 72 hours compound incubation, IC50 = concentration that kills 50% of the cells, read-out: IC50 PKD1-/- (clone 1).
Setting [6] is: mIMCD3, mIMCD-3 PKD1 knockout clone 2, 72 hours compound incubation, IC50 = concentration that kills 50% of the cells, read-out: IC50 PKD1-/- (clone 2).
[7] abbreviates: mIMCD3, 72 h, read-out: IC50 wildtype (µM).
Where [8] appears, read: mIMCD3, 72 h, read-out: IC50 PKD1-/- (clone 1) (µM).
[9] abbreviates: mIMCD3, 72 h, read-out: IC50 PKD1-/- (clone 2) (µM).

Regarding `C=CCN1C(=O)CS/C1=N\NC(=S)NC` [Number 1, 1-methyl-3-[(Z)-(4-oxo-3-prop-2-enyl-1,3-thiazolidin-2-ylidene)amino]thiourea], the IC50 in experiment [1] (setting [4]) was more than 30 µM; in experiment [2] (setting [5]), 11.5 µM; in experiment [3] (setting [6]) it was 10 µM.

For `O=C(NOCC1CC1)c1ccc(F)c(F)c1Nc1ccc(I)cc1Cl` [Number 23], the results for the IC50 in experiment [1] (setting [4]), in experiment [2] (setting [5]) and in experiment [3] (setting [6]) were 10.3 µM, 6.21 µM and 7.96 µM, respectively.

For the molecule `O=C(NOC[C@H](O)CO)c1ccc(F)c(F)c1Nc1ccc(I)cc1F` [Number 24, Mirdametinib, reference compound], the effect sizes entry in experiment [2] is given as “strong effect sizes”.

Turning to `CC(C)c1cc(N2CCCCC2)nc(-c2ccccn2)n1` [Number 13, 4-Piperidin-1-yl-6-propan-2-yl-2-pyridin-2-ylpyrimidine], the IC50 is 28.7 µM in experiment [1] (setting [4]), 6.75 µM in experiment [2] (setting [5]) and 18.7 µM in experiment [3] (setting [6]).

Consider `CCOC(=O)CCNc1cc(N2CCc3ccccc3CC2)nc(-c2ccccn2)n1` [Number 17], for which the results for the IC50 in experiment [1] (setting [4]), in experiment [2] (setting [5]) and in experiment [3] (setting [6]) were 7.69 µM, 3.41 µM and 6.08 µM, respectively.

Turning to `Fc1ccccc1-c1cc(NCCc2c[nH]c3ccccc23)nc(-c2ccccn2)n1` [Number 11, 6-(2-Fluorophenyl)-N-[2-(1H-indol-3-yl)ethyl]-2-(2-pyridinyl)-4-pyrimidinamine], the IC50 in experiment [1] (setting [4]) was found to be 9.68 µM; in experiment [2] (setting [5]) it was 3.05 µM; in experiment [3] (setting [6]), 6.43 µM.

Regarding `CN(C)S(=O)(=O)c1cc(NC(=O)c2ccc([N+](=O)[O-])o2)ccc1Cl` [Number 12, N-[4-Chloro-3-(dimethylsulfamoyl)phenyl]-5-nitro-2-furamide], the IC50 in experiment [1] (setting [4]) is 11.2 µM; in experiment [2] (setting [5]), 7.09 µM; in experiment [3] (setting [6]), 8.51 µM.

For the molecule `Cn1c(=O)c(F)c(Nc2ccc(I)cc2F)c2c(=O)n(C[C@@H](O)CO)cnc21` [Number 25], the IC50 in experiment [1] (setting [4]) was found to be 41.9 µM; in experiment [2] (setting [5]), 16.9 µM; in experiment [3] (setting [6]) it was 9.51 µM.

Regarding `N#CC(C#N)=NNc1cccc(Cl)c1` [Number 4], the IC50 in experiment [1] (setting [4]) turned out to be 4.31 µM; in experiment [2] (setting [5]), 3.54 µM; in experiment [3] (setting [6]), 2.85 µM.

For the molecule `Cn1c(/C=C/c2ccc([N+](=O)[O-])o2)nc2ccccc2c1=O` [Number 5, 3-Methyl-2-[(E)-2-(5-nitro-2-furyl)vinyl]-4(3H)-quinazolinone], the IC50 in experiment [1] (setting [4]) amounted to 4.01 µM; in experiment [2] (setting [5]), 2.39 µM; in experiment [3] (setting [6]) it was 2.64 µM.

As for `COc1ccc(Cc2c(N)nc(-c3ccccn3)nc2N)cc1` [Number 19, 5-(4-Methoxybenzyl)-2-(2-pyridinyl)-4,6-pyrimidinediamine], the IC50 in experiment [1] (setting [4]) worked out at 36.5 µM; in experiment [2] (setting [5]), 20 µM; in experiment [3] (setting [6]), 24.9 µM.

On to `COc1cc(F)c(F)c(Nc2ccc(I)cc2F)c1NS(=O)(=O)C1(C[C@H](O)CO)CC1` [Number 14, Refametinib], for which the IC50 in experiment [1] (setting [7]), in experiment [2] (setting [5]) and in experiment [3] (setting [6]) was more than 30 µM each time.

Consider `Cc1c(Cl)cccc1Nc1ncnc2cc(Cl)ccc12` [Number 3, 7-Chloro-N-(3-chloro-2-methylphenyl)-4-quinazolinamine], for which the IC50 in experiment [1] (setting [4]) was more than 30 µM; in experiment [2] (setting [5]) it was more than 30 µM; in experiment [3] (setting [6]), 14 µM.

For the molecule `COc1cc(NC(=O)c2ccc([N+](=O)[O-])o2)cc(C(F)(F)F)c1` [Number 9, N-[3-Methoxy-5-(trifluoromethyl)phenyl]-5-nitro-2-furamide], the values for the IC50 in experiment [1] (setting [7]), in experiment [2] (setting [5]) and in experiment [3] (setting [6]) were 18.4 µM, 15 µM and 15.5 µM, respectively.

As to `S=C(SSC(=S)N1CCOCC1)N1CCOCC1` [Number 21, Dimorpholinethiuram disulfide], the IC50 in experiment [1] (setting [4]) worked out at 19.8 µM; in experiment [2] (setting [5]), 5.3 µM; in experiment [3] (setting [6]) it was 3.94 µM.

On to `Cn1c(=O)c(F)c(Nc2ccc(I)cc2F)c2c(=O)n(C[C@@H](O)CO)cnc21` [Number 25, Tak-733, reference compound], for which the effect sizes result in experiment [2] was “strong effect sizes”.

As to `N#CC(C#N)=NNc1ccc(OC(F)(F)F)cc1` [Number 22], the IC50 in experiment [1] (setting [4]) came to 4.12 µM; in experiment [2] (setting [5]), 2.89 µM; in experiment [3] (setting [6]), 2.42 µM.

Regarding `O=C(NOC[C@H](O)CO)c1ccc(F)c(F)c1Nc1ccc(I)cc1F` [Number 24, Mirdametinib], the IC50 is 80 µM in experiment [2] (setting [8]) and 21.8 µM in experiment [3] (setting [9]).

For `CC(=O)N(C)c1ccc(Nc2nc(NC3CCC3)c3[nH]cnc3n2)cc1` [Number 18, N-(4-{[6-(Cyclobutylamino)-7H-purin-2-yl]amino}phenyl)-N-methylacetamide], the results for the IC50 in experiment [1] (setting [4]), in experiment [2] (setting [5]) and in experiment [3] (setting [6]) were 5.93 µM, 3.07 µM and 2.53 µM, respectively.

On to `O=C(Nc1ccccc1C(=O)NCc1ccccn1)c1ccc([N+](=O)[O-])o1` [Number 8, 5-Nitro-N-{2-[(2-pyridinylmethyl)carbamoyl]phenyl}-2-furamide], for which the IC50 in experiment [1] (setting [4]) came out at 24.5 µM; in experiment [2] (setting [5]), 19.4 µM; in experiment [3] (setting [6]), 19.4 µM.

Take `COc1cc2ncnc(Nc3cccc(Cl)c3C)c2cc1OC` [Number 7, N-(3-Chloro-2-methylphenyl)-6,7-dimethoxy-4-quinazolinamine]: the IC50 in experiment [1] (setting [4]) is more than 30 µM; in experiment [2] (setting [5]) it was 17 µM; in experiment [3] (setting [6]) it was 12.1 µM.

`Cc1nc(Nc2ncc(C(=O)Nc3c(C)cccc3Cl)s2)cc(N2CCN(CCO)CC2)n1` [Number 20]: the IC50 in experiment [1] (setting [4]) was 3.74 µM; in experiment [2] (setting [5]) it was 2.32 µM; in experiment [3] (setting [6]) it was 1.42 µM.

As for `O=c1c2ccccc2nc(/C=C/c2ccc([N+](=O)[O-])o2)n1-c1ccc(O)cc1` [Number 6, 3-(4-Hydroxyphenyl)-2-[(E)-2-(5-nitro-2-furyl)vinyl]-4(3H)-quinazolinone], the values for the IC50 in experiment [1] (setting [4]), in experiment [2] (setting [5]) and in experiment [3] (setting [6]) were 4.49 µM, 3.17 µM and 2.98 µM, respectively.

Turning to `O=C1C2=C(C(=O)c3ccccc31)[C@H]1Oc3ccccc3[C@H]1CO2` [Number 15, Pterocarpanquinone ((2S,10S)-3,12-dioxapentacyclo[11.8.0.02,10.04,9.015,20]henicosa-1(13),4,6,8,15,17,19-heptaene-14,21-dione)], the figures for the IC50 in experiment [1] (setting [7]), in experiment [2] (setting [8]) and in experiment [3] (setting [9]) were 4.45 µM, 3.54 µM and 2.8 µM, respectively.

Regarding `c1ccc(CNc2cc(-c3ccccc3)nc(-c3ccccn3)n2)cc1` [Number 10, N-benzyl-6-phenyl-2-pyridin-2-ylpyrimidin-4-amine], the IC50 in experiment [1] (setting [4]) was 7.73 µM; in experiment [2] (setting [5]) it was 3.24 µM; in experiment [3] (setting [6]) it was 6.03 µM.
